Columns and labels:
neutrophil FPR = conditions: read-out: Kd for neutrophil FPR; unaltered parent peptide, antagonist; cited from earlier work
[1] = mouse, in vivo
[2] = tested on: Klebsiella pneumoniae lung inflammation model; type: in vivo, mouse; conditions: excised tissue, 18 hr post injection, control n=4, Klebsiella-infected n=6 mice
[3] = tested on: Klebsiella pneumoniae lung inflammation model; type: in vivo, mouse

| Substance | Kd (neutrophil FPR) | Blood half-life [1] | Blood clearance (biological) half-life ([1]; iv) | Mean ratio of radioactivity in infected to control lungs [2] | Average lung SUV, control mice ([3]; PET 18 hr post injection, n=4, mean ± SD) | Average lung SUV, Klebsiella infected mice ([3]; PET 18 hr post injection, n=6, mean ± SD) | Ligand half-life in the control lung ([3]; mouse, in vivo) | Ligand half-life in the infected lung ([3]; mouse, in vivo) |
| --- | --- | --- | --- | --- | --- | --- | --- | --- |
| N-cinnamoyl-F-(D)L-F-(D)L-F [cFLFLF] | 2 nM |  |  |  |  |  |  |  |
| cFLFLF-PEG76-DOTA-^64Cu [cFLFLFK-PEG-^64Cu] |  | approximately 1 hour | 55 ± 8 min | 3.8 | 0.028 ± 0.003 | 0.142 ± 0.054 | 4.8 ± 0.7 h | 10.3 ± 2.9 h |

— paper PMC3004780 (Journal of nuclear medicine : official publication, Society …, 2009)
